Converted amounts (≈) assume the structure as drawn.
Legend:
[1] = test system: bacterial cell wall synthesis; settings: in words; literature; cited from earlier work
[2] = Antibacterial activity, MIC by Method 1 (method of Atherton et al); format: cell-based; settings: Enterococcus cloacae, read-out: Minimum inhibiting concentration (MIC)
Description: (§1) Antibacterial activity was tested by two methods.
(§2) Minimum inhibiting concentration (MIC, μg/ml) was determined by the method of Atherton et al (Antimicrobial Agent and Chemotherapy 15, 677, 1979).
(§3) Antibacterial activity: MIC (μ g/ml) [by Method 1]

E. coli DC 2 = assay: as above; format: cell-based; settings: for MIC: Escherichia coli, DC2, read-out: Minimum inhibiting concentration (MIC)
Description: as §1, §2, §3

E. coli TEM 2 = assay: as above; format: cell-based; settings: for MIC: Escherichia coli, TEM2, read-out: Minimum inhibiting concentration (MIC)
Description: as §1, §2, §3

E. coli = assay: as above; format: cell-based; settings: for MIC: Escherichia coli, read-out: Minimum inhibiting concentration (MIC)
Description: as §1, §2, §3

Proteus vulgaris = assay: as above; format: cell-based; settings: for MIC: read-out: Minimum inhibiting concentration (MIC)
Description: as §1, §2, §3

Pseudomonas aeruginosa = assay: as above; format: cell-based; settings: for MIC: read-out: Minimum inhibiting concentration (MIC)
Description: as §1, §2, §3

Salmonella typhimurium = assay: as above; format: cell-based; settings: for MIC: Salmonella enterica, read-out: Minimum inhibiting concentration (MIC)
Description: as §1, §2, §3

Serratia marcescens = assay: as above; format: cell-based; settings: for MIC: read-out: Minimum inhibiting concentration (MIC)
Description: as §1, §2, §3

Staphylococcus aureus = assay: as above; format: cell-based; settings: for MIC: read-out: Minimum inhibiting concentration (MIC)
Description: as §1, §2, §3

Streptococcus faecalis = assay: as above; format: cell-based; settings: for MIC: Enterococcus faecalis, read-out: Minimum inhibiting concentration (MIC)
Description: as §1, §2, §3

racemase = settings: in words; literature; formed by bacterial peptidase; cited from earlier work
Enterococcus cloacae = assay: Antibacterial activity, MIC by Method 1 (method of Atherton et al); format: cell-based
Description: as §1, §2, §3

Klebsiella pneumoniae = assay: as above; format: cell-based; settings: for MIC: read-out: Minimum inhibiting concentration (MIC)
Description: as §1, §2, §3

Molecule: CC(N)C(=O)NC(C)P(=O)(O)O (stereo not drawn) [alaphosphalin]
- antibacterial action / inhibition of bacterial cell wall synthesis [1]: antibacterial action

Molecule: CCC[C@H](N)C(=O)NC(CP(=O)(O)C(C)N)C(=O)O (stereo partly drawn) [Compound No. 6-1, (1-Aminoethyl)(2-L-norvalylamino-2-carboxyethyl)phosphinic acid]
- MIC [2]: 64 µg/mL (≈ 217 µM)
- MIC (E. coli DC 2): 16 µg/mL (≈ 54.2 µM)
- MIC (E. coli TEM 2): 256 µg/mL (≈ 867 µM)
- MIC (E. coli): 16 µg/mL (≈ 54.2 µM)
- MIC (Proteus vulgaris): 1 µg/mL (≈ 3.39 µM)
- MIC (Pseudomonas aeruginosa): > 256 µg/mL
- MIC (Salmonella typhimurium): 128 µg/mL (≈ 433 µM)
- MIC (Serratia marcescens): > 256 µg/mL
- MIC (Staphylococcus aureus): 32 µg/mL (≈ 108 µM)
- MIC (Streptococcus faecalis): 16 µg/mL (≈ 54.2 µM)

Molecule: CC(N)P(=O)(O)O (stereo not drawn) [1-aminoethylphosphonic acid]
- inhibition of racemase activity (racemase): inhibiting racemase activity

Molecule: (D-1-aminoethyl)(2-L-nor-valylamino -2-L- or -D-carboxyethyl)phosphinic acid [6-2]
- Minimum inhibiting concentration (MIC) (E. coli DC 2): 4 µg/mL
- Minimum inhibiting concentration (MIC) (E. coli TEM 2): 64 µg/mL
- Minimum inhibiting concentration (MIC) (E. coli): 8 µg/mL
- Minimum inhibiting concentration (MIC) (Enterococcus cloacae): 16 µg/mL
- Minimum inhibiting concentration (MIC) (Klebsiella pneumoniae): 64 µg/mL
- Minimum inhibiting concentration (MIC) (Proteus vulgaris): 1 µg/mL
- Minimum inhibiting concentration (MIC) (Pseudomonas aeruginosa): > 256 µg/mL
- Minimum inhibiting concentration (MIC) (Salmonella typhimurium): 32 µg/mL
- Minimum inhibiting concentration (MIC) (Serratia marcescens): 128 µg/mL
- Minimum inhibiting concentration (MIC) (Staphylococcus aureus): 8 µg/mL
- Minimum inhibiting concentration (MIC) (Streptococcus faecalis): 1 µg/mL

Molecule: CSCC[C@H](N)C(=O)NC(CP(=O)(O)C(C)N)C(=O)O (stereo partly drawn) [Compound No. 10, (1-Aminoethyl)(2-L-methionylamino-2-carboxyethyl)phosphinic acid]
- MIC [2]: 256 µg/mL (≈ 782 µM)
- MIC (E. coli DC 2): 32 µg/mL (≈ 97.8 µM)
- MIC (E. coli TEM 2): 256 µg/mL (≈ 782 µM)
- MIC (E. coli): 64 µg/mL (≈ 196 µM)
- MIC (Klebsiella pneumoniae): > 256 µg/mL
- MIC (Proteus vulgaris): 8 µg/mL (≈ 24.4 µM)
- MIC (Pseudomonas aeruginosa): > 256 µg/mL
- MIC (Salmonella typhimurium): > 256 µg/mL
- MIC (Serratia marcescens): > 256 µg/mL
- MIC (Staphylococcus aureus): 4 µg/mL (≈ 12.2 µM)
- MIC (Streptococcus faecalis): 2 µg/mL (≈ 6.11 µM)

Molecule: CCC[C@H](NC(=O)[C@H](C)N)C(=O)NC(CP(=O)(O)C(C)N)C(=O)O (stereo partly drawn) [Compound No. 20, (1-Aminoethyl)(2-L-alanyl-L-norvalylamino-2-carboxyethyl)phosphinic acid]
- MIC [2]: 0.5 µg/mL (≈ 1.36 µM)
- MIC (E. coli DC 2): ≤ 0.25 µg/mL
- MIC (E. coli TEM 2): ≤ 0.25 µg/mL
- MIC (E. coli): 0.5 µg/mL (≈ 1.36 µM)
- MIC (Klebsiella pneumoniae): ≤ 0.25 µg/mL
- MIC (Proteus vulgaris): 0.5 µg/mL (≈ 1.36 µM)
- MIC (Pseudomonas aeruginosa): 256 µg/mL (≈ 699 µM)
- MIC (Salmonella typhimurium): 0.5 µg/mL (≈ 1.36 µM)
- MIC (Serratia marcescens): 0.5 µg/mL (≈ 1.36 µM)
- MIC (Staphylococcus aureus): 256 µg/mL (≈ 699 µM)
- MIC (Streptococcus faecalis): ≤ 0.25 µg/mL

From US5030732A, “Aminoethylphosphinic acid derivatives” (Merck & Co., Inc., priority 1988, dated 1991)
